Patent EP1142583A1, “ANTITUMOR AGENTS” (TEIKOKU HORMONE MFG. CO., LTD., priority 1999, dated 2000)
Where two headings read alike, the source gives them in different places.

System: WiDr cells
Experiment: Cell death rate by flow cytometry (PI DNA content, EPICS XL)
Assay type: cell-based, human
Settings: for Cell death rate (%): WiDr cells
Method: DMEM medium containing 10% fetal bovine serum was placed in plastic culture dishes having a diameter of 6 cm. Then, WiDr cells (obtained from HSRRB), which were human colon carcinoma cells, were inoculated thereinto so as to give a density of 2.0 x 10^5 cells/3 mL. These culture dishes were incubated at 37°C for 48 hours. Moreover, 1/1000 volume of PD98059 (with a final concentration of 50 µmol/L) or solvent (DMSO) was added thereto, followed by incubation for 12 hours. Thereafter, 1/1000 volume of TZT-1027 (with a final concentration of 10 nmol/L) or solvent (a lactic acid buffer) was added thereto. Where vincristine was used as the microtubule-interfering agent, 1/1000 volume of vincristine sulfate (with a final concentration of 100 nmol/L) or solvent (DMSO) was added thereto. Twenty-four (24), 48, 72 or 96 hours after the addition of TZT-1027, vincristine or solvent, cells were collected and worked up according to the following procedure. With respect to a solvent control group and a group treated with PD98059 alone, cells were similarly collected and worked up after 96 hours' incubation.
First of all, all of the culture medium was transferred to a centrifuge tube. The remaining cells were suspended by adding 1 mL of a 0.05% trypsin/phosphate-buffered physiological saline (PBS)-EDTA solution to the culture dish and incubating it at 37°C for 5 minutes, and combined with the above culture medium. The centrifuge tube was centrifuged at 1,500 rpm for 5 minutes. Then, the precipitate was resuspended in 1 mL of PBS, transferred to a light-shielding microtube, and centrifuged at 2,500 rpm for 5 minutes. After the precipitate was suspended in 60 µL of PBS, 140 µL of 100% ethanol was added thereto and the resulting suspension was stirred and allowed to stand at -20°C overnight or longer. Moreover, the suspension was centrifuged at 2,500 rpm for 5 minutes, and 100 µL of a phosphate-citric acid buffer (0.2M […] : 0.1M citric acid = 24:1) was added to the precipitate, followed by stirring (at 500 rpm) at room temperature for 30 minutes. After suspension was centrifuged at 2,500 rpm for 5 minutes, 100 µL of PBS and 1 µL of an RNase solution (10 mg/mL (PBS); obtained from SIGMA) was added to the precipitate, followed by incubation at 37°C for 30 minutes. Thereafter, 880 µL of PBS and 20 µL of a propidium iodide (hereinafter referred to as "PI") solution (1 mg/mL (PBS); obtained from Wako Pure Chemical Industries Ltd.) were added thereto and reacted at room temperature for 30 minutes with stirring. The resulting reaction mixture was allowed to stand in the dark under cooling with ice until it was used for measurement.
The cell death rate was measured and analyzed by means of an EPICS XL system (manufactured by COULTER). Prior to analysis, the EPICS XL system was checked by means of DNAcheck (manufactured by COULTER).
Next, a protocol used for calculating the cell death rate by using the DNA content as a parameter was constructed. In this protocol, FS (forward scatter), SS (side scatter) and FL3 (PI fluorescence) were selected as parameters, and the number of analyzed cells was 30,000. Furthermore, by measuring a control sample of cells to be actually measured, the sensitivity of the detector and regions were preset with consideration for each parameter. Measurements were made by pipetting a sample at several times, transferring it into an exclusive tube, and setting it in the main unit of the EPICS XL system. The cell death rate was calculated by use of histograms in the protocol, which were constructed by removing doublets and triplets from data incorporating dead cells.

[1] = Homo sapiens, WiDr, 96 h, read-out: Cell death rate (%)
[2] = Homo sapiens, WiDr, 24 h, read-out: Cell death rate (%)
[3] = Homo sapiens, WiDr, 48 h, read-out: Cell death rate (%)

`COc1cccc(-c2cc(=O)c3ccccc3o2)c1N` [PD98059, 2-(2-amino-3-methoxyphenyl)-4H-chromen-4-one] gave a cytotoxicity at 50 µM [1] of 8.9%.

With `CC[C@H](C)[C@@H]([C@@H](CC(=O)N1CCC[C@H]1[C@H](OC)[C@@H](C)C(=O)NCCc1ccccc1)OC)N(C)C(=O)[C@@H](NC(=O)[C@H](C(C)C)N(C)C)C(C)C` [TZT-1027, N^2-(N,N-Dimethyl-L-valyl)-N-[(1S,2R)-2-methoxy-4-[(2S)-2-[(1R,2R)-1-methoxy-2-methyl-3-oxo-3-[(2-phenylethyl)-amino]propyl]-1-pyrrolidinyl]-1-[(S)-1-methylpropyl]-4-oxobutyl]-N-methyl-L-valinamide] the cytotoxicity at 0.01 µM [2] was 3.8%, the cytotoxicity at 0.01 µM [3] was 9.2% and the cytotoxicity at 0.01 µM [1] was 23.3%. The “Cell death rate (%)” value (TZT-1027 10 nmol/L combined with PD98059 50 µmol/L (added 12 hours before), time 24) was 10.5%, the “Cell death rate (%)” value (TZT-1027 10 nmol/L combined with PD98059 50 µmol/L (added 12 hours before), time 48) was 35.9% and the “Cell death rate (%)” value (TZT-1027 10 nmol/L combined with PD98059 50 µmol/L (added 12 hours before), time 96) was 48.1%.

Work on `CC[C@]1(O)C[C@H]2CN(CCc3c([nH]c4ccccc34)[C@@](C(=O)OC)(c3cc4c(cc3OC)N(C=O)[C@H]3[C@@](O)(C(=O)OC)[C@H](OC(C)=O)[C@]5(CC)C=CCN6CC[C@]43[C@@H]65)C2)C1` [Vincristine, vincristine] yielded a cytotoxicity at 0.1 µM [2] of 4.5%, a cytotoxicity at 0.1 µM [3] of 8.4% and a cytotoxicity at 0.1 µM (Homo sapiens, WiDr, 72 h, read-out: Cell death rate (%)) of 23.3%. The “Cell death rate (%)” value (Vincristine 100 nmol/L combined with PD98059 50 µmol/L (added 12 hours before), time 24) was 12.1%, the “Cell death rate (%)” value (Vincristine 100 nmol/L combined with PD98059 50 µmol/L (added 12 hours before), time 48) was 37.4% and the “Cell death rate (%)” value (Vincristine 100 nmol/L combined with PD98059 50 µmol/L (added 12 hours before), time 72) was 58.7%.
